Test system: SCD
Assay: Fatty acid saturation in guinea pig brain after oral SCD inhibitors (GC-FID of FAME)
Format: in vivo
Details: oral 25 mg/kg twice daily 5 days, vs vehicle
Protocol: FIG. 19A-FIG. 19F are a series of graphs showing an evaluation of fatty acid saturation in guinea pig brain after oral administration of SCD inhibitors. Guinea pigs were dosed orally with SCD inhibitors twice daily (every 12 hours) for 5 days. Guinea pigs were dosed with vehicle, SCD5 Selective Inhibitor 1 (“SCD5-SI-1”), SCD5 Selective Inhibitor 2 (“SCD5-SI-2”), CAY10566 (“CAY”) or SCD1/SCD5 Inhibitor 1 (“SCD1/5-1”), all compounds at 25 mg/kg with a volume-matched vehicle control. Four hours after the last dose on day 5, guinea pigs were sacrificed, and brains were removed after whole-body saline perfusion. […] Samples were evaluated on a gas chromatograph with a flame ionization detector (GC-FID) to quantify a comprehensive panel of fatty acid species. Brain samples were evaluated for levels of 16 (FIG. 19A) and 18 (FIG. 19B) carbon-containing fatty acids (C16, C18 respectively), and the desaturation index (DI) was calculated by taking the ratio of desaturated to saturated fatty acid for each species. […] Brain samples were evaluated for the relative levels of the positional isomers of C16, including C16:1 n7 palmitoleic acid (FIG. 19C) or C16:1 n9 monounsaturated fatty acids (FIG. 19D). […] Data was analyzed by one-way ANOVA with Tukey's post-hoc test to account for multiple comparisons. ** p<0.01, *** p<0.005, **** p<0.0001. […]

## Cc1nnc(-c2ccc(N3CCC(Oc4cc(F)ccc4Cl)CC3)nn2)o1 [CAY10566]
  C16 desaturation index (DI), brain: decreased the C16 DI
